Laboratory results as given in patent US4551460A, “Pyrido[2,1-b]quinazoline derivatives useful as agents for treatment of allergic conditions and vascular disorders involving thrombosis” (priority 1983, dated 1985).

Columns and labels:
[1] = tested on: PAF induced mortality; assay: Prevention of mortality induced by platelet aggregating factor (PAF); format: in vivo, mice (CF1); conditions: PAF 0.10 mg/kg i.v.
Experimental: (k) Prevention of Mortality Induced by Platelet Aggregating Factor (PAF)
Male CF1 mice weighing 20-30 gms (Carworth Farms Co.) are fed ad libitum.
Racemic 2-[[[2-(acetyloxy)-3-(octadecyloxy)propoxy]hydroxyphosphinyl]oxy]-N,N,N-trimethylethanaminium hydroxide inner salt hemihydrate (PAF) is concentrated in ethanol at a concentration of 1 mg/ml.At the time of experimentation, PAF is diluted in 0.1% BSA (bovine serum albumin) and administered intravenously at a dose of 0.10 mg/kg one hour after 10 mice are dosed with either vehicle (BSA) or drug. Mortality in mice treated with PAF occurs within 30 minutes after i.v. administration.

[2] = tested on: histamine-induced bronchoconstriction; assay: Antagonism of histamine-induced bronchoconstriction in guinea pigs; format: in vivo, guinea pig (Hartley strain); conditions: Cavia porcellus, po, 2 hour pretreatment; read-out: ID50 antagonism of histamine-induced bronchoconstriction
Experimental: (g) Antagonism of PAF and Histamine-induced Bronchoconstriction in Guinea Pig
Spontaneously breathing male guinea pigs (Hartley strain) weighing 300-450 grams are dosed orally with test drug or control vehicle two hours prior to challenge with agonist. The animals are anesthetized with urethane (2 gm/kg) intraperitoneally and the jugular vein and trachea are cannulated. Two hours after dosing, the animal is paralyzed with succinylcholine (1.2 mg/kg, i.v.) and ventilated (Harvard rodent respirator) at 40 breaths/minutes and 2.5 cc tidal volume. Propranolol (0.1 mg/kg, i.v.) is administered and five minutes thereafter the animal is challenged with a constrictory dose of platelet activating factor (10 μg/kg, i.v.) or histamine dihydrochloride (20 μg/kg, i.v.). The change (cm H2 O) between pre and peak ventilatory pressure readings is averaged for three control animals and five drug treated animals. The percent inhibition is calculated from the following formula: (Control-Drug Treated/Control)×100.

Row | Structure (SMILES) | ED50 ([1]; Mus musculus, Platelet, oral, read-out: oral ID50 (Inhibiting Dose), PAF induced mortality) [mg/kg] | prevention of PAF induced mortality [1] | ED50 [2] [mg/kg]
1 | CC(C)c1ccc2nc3ccc(C(=O)NCCCCCCc4cccnc4)cn3c(=O)c2c1 [Compound C, 2-(1-Methylethyl)-N-[6-(3-pyridyl)hexyl]-11-oxo-11H-pyrido[2,1-b]quinazoline-8-carboxamide] | 13 | prevented PAF induced mortality | –
2 | CC(C)c1ccc2nc3ccc(C(=O)NCCCCn4ccnc4)cn3c(=O)c2c1 [Compound A, N-[4-(1H-imidazol-1-yl)butyl]-2-(1-methylethyl)-11-oxo-11H-pyrido[2,1-b]quinazoline-8-carboxamide] | – | – | 39
